# Like-named read-outs stand apart in the source and are kept apart here.
# Legend:
# [1] = biological target: T1, BMX (Homo sapiens, UniProt P51813); test: BMX biochemical activity assay (HTRF, phosphorylation of a biotinylated peptide)
# T1 sequence (P51813 1-675): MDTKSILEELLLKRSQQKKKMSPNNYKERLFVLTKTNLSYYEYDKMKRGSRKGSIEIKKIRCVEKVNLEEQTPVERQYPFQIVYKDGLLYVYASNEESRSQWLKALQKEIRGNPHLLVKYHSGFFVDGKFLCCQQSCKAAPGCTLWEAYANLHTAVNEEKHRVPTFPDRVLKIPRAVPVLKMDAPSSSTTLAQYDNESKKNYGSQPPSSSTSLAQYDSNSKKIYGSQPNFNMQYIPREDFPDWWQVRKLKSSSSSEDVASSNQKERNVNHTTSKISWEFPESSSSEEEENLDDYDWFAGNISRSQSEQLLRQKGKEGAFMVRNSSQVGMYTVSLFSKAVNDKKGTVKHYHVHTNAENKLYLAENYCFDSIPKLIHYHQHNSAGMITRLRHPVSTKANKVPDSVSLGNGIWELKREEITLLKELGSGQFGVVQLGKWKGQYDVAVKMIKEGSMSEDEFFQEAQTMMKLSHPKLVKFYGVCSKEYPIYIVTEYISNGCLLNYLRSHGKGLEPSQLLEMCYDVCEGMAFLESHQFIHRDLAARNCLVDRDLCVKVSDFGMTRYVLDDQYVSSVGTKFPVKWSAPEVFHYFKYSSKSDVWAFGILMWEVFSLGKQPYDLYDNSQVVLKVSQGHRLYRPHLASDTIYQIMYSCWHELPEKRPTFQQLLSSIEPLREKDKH
# [2] = Dynamic light scattering, colloidal aggregation; format: physicochemical; settings: deionized and filtered water (0.1% DMSO), kinetic from dmso stock, measured at 10 µM, 1 µM and 100 nM, 25 °C, read-out: DLS maximum soluble concentration at which no aggregates are observed
# Protocol: In addition, we measured particle sizes by using dynamic light scattering (DLS).
# DLS is measured at 10 µM, 1µM and 100 nM. The maximum soluble
# concentration – at which no aggregates are observed - is indicated and the colour code indicates
# Dynamic Light Scattering:
# Dynamic light scattering (Zetasizer Nano S, Malvern, UK) was used to determine compound colloidal aggregation. […] A 10 mM stock solution of
# test compounds was prepared in DMSO, following dilution to deionized and filtered water to
# obtain an analyte solution of 10 μM (0.1% DMSO). Colloidal aggregation was measured
# through sequential dilutions at 10 μM, 1 μM and 0.1 μM.
# [3] = biological target: T2, recombinant human BMX protein (hBMX) (Homo sapiens, UniProt P51813); test: Differential scanning fluorimetry (DSF); format: binding; settings: for ΔTm at 100 µM: read-out: ΔTm; for Average Tm of BMX with compound: apo-BMX Tm 51.8-52.2 °C
# T2 construct: Crystallization, data collection, and structure determination of BMX catalytic domain in; made in house; host or cells: Sf-9 insect cells
# Protocol: We further characterized the binding interaction between JS24–JS27 and BMX by using differential scanning fluorimetry (DSF) and surface plasmon resonance (SPR). Purified recombinant human BMX protein (hBMX) was first subjected to thermal scanning in the absence and presence of JS24–JS27, and the respective protein melting temperature (Tm) calculated.
# Differential Scanning Fluorimetry:
# DSF was performed in MicroAmp™ EnduraPlate™ Optical 96 -Well Clear Reaction Plates
# with Barcode (Applied Biosystems, Life Technologies, California, USA) using a QuantStudio
# 7 Flex Real-Time PCR System (Applied Biosystems). Pre-incubation of the protein with the
# compound for 2 hours at 4 °C was required prior to DSF experiments. The final reaction mixture
# (20 μL of total volume) contained 4 μg of His6-BMX, 4-fold of Protein Thermal Shift™ Dye
# (Applied Biosystems) diluted in protein buffer solution, and 100 μM of compound. The
# temperatures were obtained by taking the midpoint of each transition.
# [4] = tested on: LNCaP cells; test: LNCaP cell growth assay (CellTiter-Glo, 96 h); format: cell-based; settings: Homo sapiens, read-out: GI50 LNCaP
# Protocol: (§1) GI50 values are reported in μM and are the mean of three individual experiments performed in triplicate. N.d., non-determined, no growth inhibition observed within the concentrations tested.
# (§2) Cellular activity Assay: LNCaP and PC-3 Cell Growth Assay
# (§3) Cells were seeded in white, opaque-bottom 96-well plates at 5000 cells/well (LNCaP) or 2000 cells/well (PC-3) in a total volume of 100 µL of culture media.
# (§4) fold) in 100 µL media were added to the cells 24 hours later. After 96 hours incubation cellular viability was assessed by CellTiter-Glo® (Promega) according to the manufacturer’s instructions. The values were normalized to vehicle and IC50 was calculated using GraphPad
# [5] = tested on: PC3 cells; test: PC-3 cell growth assay (CellTiter-Glo, 96 h); format: cell-based; settings: Homo sapiens, read-out: GI50 PC3
# Protocol: as §1, §2, §3, §4
# [6] = tested on: LNCaP cells; test: Anti-proliferative co-treatment assays in LNCaP; format: cell-based; settings: JS24 3 μM, JS25 5 μM, JS26 6 μM, 5 days; for cell viability reduction: co-treatment with Flutamide (50 μM)
# [7] = tested on: LNCaP; test: Multi cell line growth assay (CellTiter-Glo, 72 h); format: cell-based, human; settings: Homo sapiens, LNCaP, Prostate, ND = no growth inhibition observed within the concentrations tested
# [8] = tested on: 22 RV1; test: Multi cell line growth assay (CellTiter-Glo, 72 h); format: cell-based, human; settings: Homo sapiens, 22Rv1, Prostate, ND = no growth inhibition observed
# [9] = tested on: Kasumi; test: Multi cell line growth assay (CellTiter-Glo, 72 h); format: cell-based, human; settings: Homo sapiens, Blood, ND = no growth inhibition observed
# [10] = tested on: H1299; test: Multi cell line growth assay (CellTiter-Glo, 72 h); format: cell-based, human; settings: Homo sapiens, NCI-H1299, Bone marrow (so in the source), ND = no growth inhibition observed
# [11] = pH 6.8
# Description: (§5) For assessment of drug permeability, we relied on parallel artificial membrane permeability assay (PAMPA) performed at Pion Inc. with the PAMPA Evolution™ instrument (Table S1, ESI ^†).
# (§6) methods (ESOL model1 and Ali et al.2) PAMPA: Pe is effective permeability (x10-6 cm/sec)
# (§7) measured directly from assay at pH 6.8 and %R is membrane retention.
# (§8) as the average of quadruplicates. Und label refers to compounds with extremely low solubility
# (§9) for which UV limits were below the detection limits therefore considered undetected.
# (§10) Compounds were labelled as high permeability (green), medium permeability (orange) or low
# (§11) Artificial Membrane Permeability (PAMPA):
# (§12) The PAMPA Evolution™ instrument was used to determine permeability, at Pion Inc. In
# (§13) PAMPA, a sandwich is formed such that each composite well is divided into two chambers,
# (§14) measured at pH 6.8 in the donor compartment using low-binding, low UV Prisma buffer. The
# (§15) drug-free acceptor compartment was filled with acceptor sink buffer containing a scavenger at
# (§16) the start of the test. The proprietary scavenger mimics serum proteins and blood circulation,
# (§17) thus creating sink conditions. Aqueous solutions of studied compounds are prepared by diluting
# (§18) and thoroughly mixing 3 µL of DMSO stock in 600 µL of Prisma HT buffer. Final
# (§19) concentration of organic solvent (DMSO) in aqueous buffer is ≤ 0.5% (v/v). The reference
# (§20) solution is identical to the donor at time zero, so that any surface adsorption effects from the
# (§21) plastic ware is compensated. The PAMPA sandwich was assembled and allowed to incubate
# (§22) for ~15 hours. The solutions in the donor compartment were un-stirred within duration of the
# (§23) experiment. Thus, the thickness of the aqueous boundary layer expected to be about 1000 µm.
# (§24) The sandwich was then separated, and both the donor and receiver compartments were assayed
# (§25) for the amount of drug present by comparison with the UV spectrum obtained from reference
# [12] = in vitro; settings: PAMPA
# Description: as §5, §6, §7, §8, §9, §10, §11, §12, §13, §14, §15, §16, §17, §18, §19, §20, §21, §22, §23, §24, §25
# [13] = biological target: BTK (Homo sapiens, UniProt Q06187); test: BTK biochemical activity assay (radiometric, KinaseProfiler); parameters: purchased Eurofins DiscoverX KinaseProfiler (contract assay); settings: for IC50: duplicate, mean ± S.D., read-out: BTK inhibition IC50
# BTK, sequence (Q06187 whole entry, species assumed): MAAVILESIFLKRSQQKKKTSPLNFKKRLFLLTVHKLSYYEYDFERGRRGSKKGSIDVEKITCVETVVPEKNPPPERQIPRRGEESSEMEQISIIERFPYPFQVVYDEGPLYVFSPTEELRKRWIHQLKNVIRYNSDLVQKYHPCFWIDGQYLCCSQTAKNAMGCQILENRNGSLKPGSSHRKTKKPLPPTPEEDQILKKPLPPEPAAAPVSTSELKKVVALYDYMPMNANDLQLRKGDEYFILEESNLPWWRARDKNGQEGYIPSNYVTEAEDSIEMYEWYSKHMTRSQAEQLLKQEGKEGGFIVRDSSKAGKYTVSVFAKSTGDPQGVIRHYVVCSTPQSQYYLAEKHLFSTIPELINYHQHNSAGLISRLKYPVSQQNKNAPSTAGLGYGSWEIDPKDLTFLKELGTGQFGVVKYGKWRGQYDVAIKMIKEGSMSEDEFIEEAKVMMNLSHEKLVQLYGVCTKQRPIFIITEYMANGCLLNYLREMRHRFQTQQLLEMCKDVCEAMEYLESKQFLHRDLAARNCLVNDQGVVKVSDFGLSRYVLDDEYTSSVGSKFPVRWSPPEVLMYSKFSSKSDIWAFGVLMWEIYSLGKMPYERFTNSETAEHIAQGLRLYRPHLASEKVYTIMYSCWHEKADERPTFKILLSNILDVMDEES
# [14] = biological target: T1, BMX; test: KINOMEscan binding; settings: read-out: % Ctrl BMX
# Protocol: (§26) Therefore, we included the whole TEC, EGFR and JAK family in our screening, and the Src family and Lkb1, which also have a cysteine within the same sequence alignment.
# (§27) Kinome selectivity was performed with DiscoverX KINOMEscan™ technology.
# [15] = biological target: TEC (Homo sapiens, UniProt P42680); test: KINOMEscan binding; settings: read-out: % Ctrl TEC
# Protocol: as §26, §27
# [16] = biological target: ERBB2 (Homo sapiens, UniProt P04626); test: KINOMEscan binding; settings: read-out: % Ctrl ERBB2
# Protocol: as §26, §27
# [17] = biological target: ERBB3 (Homo sapiens, UniProt P21860); test: KINOMEscan binding; settings: read-out: % Ctrl ERBB3
# ERBB3, sequence (P21860 20-1342): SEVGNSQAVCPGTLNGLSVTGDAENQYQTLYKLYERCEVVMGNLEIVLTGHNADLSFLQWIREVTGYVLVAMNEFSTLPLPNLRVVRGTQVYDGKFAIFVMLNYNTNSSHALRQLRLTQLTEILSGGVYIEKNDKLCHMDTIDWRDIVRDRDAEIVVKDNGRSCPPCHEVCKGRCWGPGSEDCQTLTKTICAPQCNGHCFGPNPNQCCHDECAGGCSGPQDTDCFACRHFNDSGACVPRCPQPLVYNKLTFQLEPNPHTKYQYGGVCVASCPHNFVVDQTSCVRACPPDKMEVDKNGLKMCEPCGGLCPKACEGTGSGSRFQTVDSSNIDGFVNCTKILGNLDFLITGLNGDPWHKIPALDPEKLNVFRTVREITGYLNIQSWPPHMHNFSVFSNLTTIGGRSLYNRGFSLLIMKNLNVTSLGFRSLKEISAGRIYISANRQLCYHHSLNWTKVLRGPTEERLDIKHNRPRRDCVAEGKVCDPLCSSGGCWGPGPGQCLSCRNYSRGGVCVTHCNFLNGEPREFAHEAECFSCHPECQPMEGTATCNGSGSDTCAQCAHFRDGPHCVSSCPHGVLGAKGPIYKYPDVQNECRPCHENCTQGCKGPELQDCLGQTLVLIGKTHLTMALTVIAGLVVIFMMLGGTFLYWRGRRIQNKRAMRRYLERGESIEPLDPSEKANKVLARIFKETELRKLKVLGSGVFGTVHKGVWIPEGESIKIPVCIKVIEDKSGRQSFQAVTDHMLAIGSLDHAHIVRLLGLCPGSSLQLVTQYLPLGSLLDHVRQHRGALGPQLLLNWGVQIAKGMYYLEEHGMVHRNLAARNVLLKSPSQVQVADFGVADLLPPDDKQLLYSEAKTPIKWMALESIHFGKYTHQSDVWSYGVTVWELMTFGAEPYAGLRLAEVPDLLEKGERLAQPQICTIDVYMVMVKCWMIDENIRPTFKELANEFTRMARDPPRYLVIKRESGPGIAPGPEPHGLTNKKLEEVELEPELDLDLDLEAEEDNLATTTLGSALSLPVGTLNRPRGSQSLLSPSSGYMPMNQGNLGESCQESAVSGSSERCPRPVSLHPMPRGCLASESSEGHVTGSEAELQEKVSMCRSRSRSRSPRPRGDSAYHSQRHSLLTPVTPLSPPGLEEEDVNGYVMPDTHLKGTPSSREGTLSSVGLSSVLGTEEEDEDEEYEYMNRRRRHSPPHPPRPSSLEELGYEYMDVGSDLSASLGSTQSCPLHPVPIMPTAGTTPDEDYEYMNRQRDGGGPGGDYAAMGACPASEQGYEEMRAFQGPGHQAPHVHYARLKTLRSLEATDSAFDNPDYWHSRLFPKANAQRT
# Protocol: as §26, §27
# [18] = biological target: BLK (Homo sapiens, UniProt P51451); test: KINOMEscan binding; settings: read-out: % Ctrl BLK
# Protocol: as §26, §27
# [19] = biological target: FGR (Homo sapiens, UniProt P09769); test: KINOMEscan binding; settings: read-out: % Ctrl FGR
# FGR, sequence (P09769 whole entry): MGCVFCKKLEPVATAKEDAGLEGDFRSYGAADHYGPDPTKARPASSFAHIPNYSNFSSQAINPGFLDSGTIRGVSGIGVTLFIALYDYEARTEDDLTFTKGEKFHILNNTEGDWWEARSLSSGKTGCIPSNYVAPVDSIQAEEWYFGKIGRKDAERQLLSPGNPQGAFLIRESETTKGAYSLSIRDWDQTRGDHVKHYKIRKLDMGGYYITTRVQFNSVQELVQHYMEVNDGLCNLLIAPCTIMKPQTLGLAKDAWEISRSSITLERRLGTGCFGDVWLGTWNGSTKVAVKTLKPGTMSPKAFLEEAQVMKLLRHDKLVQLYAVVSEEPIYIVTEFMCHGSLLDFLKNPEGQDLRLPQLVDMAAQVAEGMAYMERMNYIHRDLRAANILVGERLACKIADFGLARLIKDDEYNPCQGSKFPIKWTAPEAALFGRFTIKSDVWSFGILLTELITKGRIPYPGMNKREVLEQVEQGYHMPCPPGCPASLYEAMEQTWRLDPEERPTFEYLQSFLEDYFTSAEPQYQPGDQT
# Protocol: as §26, §27
# [20] = biological target: LCK (Homo sapiens, UniProt P06239); test: KINOMEscan binding; settings: read-out: % Ctrl LCK
# LCK, sequence (P06239 whole entry): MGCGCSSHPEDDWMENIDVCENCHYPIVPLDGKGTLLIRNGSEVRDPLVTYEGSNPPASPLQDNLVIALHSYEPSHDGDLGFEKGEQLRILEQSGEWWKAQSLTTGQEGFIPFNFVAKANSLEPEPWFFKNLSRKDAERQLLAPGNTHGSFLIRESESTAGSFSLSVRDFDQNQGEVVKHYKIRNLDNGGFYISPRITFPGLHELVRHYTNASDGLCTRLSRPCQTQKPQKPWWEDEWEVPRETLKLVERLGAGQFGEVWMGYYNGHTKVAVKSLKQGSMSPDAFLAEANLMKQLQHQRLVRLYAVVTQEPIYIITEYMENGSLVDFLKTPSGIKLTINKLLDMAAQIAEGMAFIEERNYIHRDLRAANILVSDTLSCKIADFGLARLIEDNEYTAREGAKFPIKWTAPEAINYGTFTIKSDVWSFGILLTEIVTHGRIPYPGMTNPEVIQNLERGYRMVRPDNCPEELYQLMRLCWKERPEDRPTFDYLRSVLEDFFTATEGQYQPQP
# Protocol: as §26, §27
# [21] = biological target: HCK (Homo sapiens, UniProt P08631); test: KINOMEscan binding; settings: read-out: % Ctrl HCK
# HCK, sequence (P08631 whole entry): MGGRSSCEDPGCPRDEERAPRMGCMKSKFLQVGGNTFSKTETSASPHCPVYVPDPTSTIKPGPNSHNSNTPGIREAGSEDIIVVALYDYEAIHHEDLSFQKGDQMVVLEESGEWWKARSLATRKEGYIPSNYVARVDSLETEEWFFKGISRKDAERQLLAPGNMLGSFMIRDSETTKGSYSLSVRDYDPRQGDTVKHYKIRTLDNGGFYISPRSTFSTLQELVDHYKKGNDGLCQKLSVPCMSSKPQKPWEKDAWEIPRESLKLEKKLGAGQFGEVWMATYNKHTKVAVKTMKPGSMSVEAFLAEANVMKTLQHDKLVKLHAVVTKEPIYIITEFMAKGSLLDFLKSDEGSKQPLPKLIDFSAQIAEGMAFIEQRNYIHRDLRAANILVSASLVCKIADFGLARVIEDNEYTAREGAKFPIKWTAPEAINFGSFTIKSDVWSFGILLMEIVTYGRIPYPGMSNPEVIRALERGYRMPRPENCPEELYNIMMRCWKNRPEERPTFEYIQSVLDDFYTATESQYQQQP
# Protocol: as §26, §27
# [22] = biological target: STK11 (Homo sapiens, UniProt Q15831); test: KINOMEscan binding; settings: read-out: % Ctrl STK11
# STK11, sequence (Q15831 whole entry): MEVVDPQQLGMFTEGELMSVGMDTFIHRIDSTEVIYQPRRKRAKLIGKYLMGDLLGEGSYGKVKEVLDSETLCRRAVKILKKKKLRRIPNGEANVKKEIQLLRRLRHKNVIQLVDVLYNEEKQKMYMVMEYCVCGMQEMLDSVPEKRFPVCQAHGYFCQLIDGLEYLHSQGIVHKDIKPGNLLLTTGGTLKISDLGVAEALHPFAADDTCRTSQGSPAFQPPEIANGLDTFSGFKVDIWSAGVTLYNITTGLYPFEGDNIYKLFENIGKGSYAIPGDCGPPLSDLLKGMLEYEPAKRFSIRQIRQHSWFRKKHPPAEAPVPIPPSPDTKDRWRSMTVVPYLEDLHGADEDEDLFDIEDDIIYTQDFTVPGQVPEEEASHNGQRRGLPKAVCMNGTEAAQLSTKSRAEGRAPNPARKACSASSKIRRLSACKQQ
# Protocol: (§28) Therefore, we included the whole TEC, EGFR and JAK family in our screening, and the Src family and Lkb1, which also have a cysteine within the same sequence alignment. We also included kinases involved in upstream (Src, FAK, PI3K, mTOR, PDK1) and downstream (Akt, PAK1, TAM) regulation of BMX signaling pathway and non-receptor tyrosine protein kinase Abl.
# as §27
# [23] = biological target: AKT1 (Homo sapiens, UniProt P31749); test: KINOMEscan binding; settings: read-out: % Ctrl AKT1
# Protocol: as §28, §27
# [24] = biological target: MERTK (Homo sapiens, UniProt Q12866); test: KINOMEscan binding; settings: read-out: % Ctrl MERTK
# MERTK, sequence (Q12866 21-999): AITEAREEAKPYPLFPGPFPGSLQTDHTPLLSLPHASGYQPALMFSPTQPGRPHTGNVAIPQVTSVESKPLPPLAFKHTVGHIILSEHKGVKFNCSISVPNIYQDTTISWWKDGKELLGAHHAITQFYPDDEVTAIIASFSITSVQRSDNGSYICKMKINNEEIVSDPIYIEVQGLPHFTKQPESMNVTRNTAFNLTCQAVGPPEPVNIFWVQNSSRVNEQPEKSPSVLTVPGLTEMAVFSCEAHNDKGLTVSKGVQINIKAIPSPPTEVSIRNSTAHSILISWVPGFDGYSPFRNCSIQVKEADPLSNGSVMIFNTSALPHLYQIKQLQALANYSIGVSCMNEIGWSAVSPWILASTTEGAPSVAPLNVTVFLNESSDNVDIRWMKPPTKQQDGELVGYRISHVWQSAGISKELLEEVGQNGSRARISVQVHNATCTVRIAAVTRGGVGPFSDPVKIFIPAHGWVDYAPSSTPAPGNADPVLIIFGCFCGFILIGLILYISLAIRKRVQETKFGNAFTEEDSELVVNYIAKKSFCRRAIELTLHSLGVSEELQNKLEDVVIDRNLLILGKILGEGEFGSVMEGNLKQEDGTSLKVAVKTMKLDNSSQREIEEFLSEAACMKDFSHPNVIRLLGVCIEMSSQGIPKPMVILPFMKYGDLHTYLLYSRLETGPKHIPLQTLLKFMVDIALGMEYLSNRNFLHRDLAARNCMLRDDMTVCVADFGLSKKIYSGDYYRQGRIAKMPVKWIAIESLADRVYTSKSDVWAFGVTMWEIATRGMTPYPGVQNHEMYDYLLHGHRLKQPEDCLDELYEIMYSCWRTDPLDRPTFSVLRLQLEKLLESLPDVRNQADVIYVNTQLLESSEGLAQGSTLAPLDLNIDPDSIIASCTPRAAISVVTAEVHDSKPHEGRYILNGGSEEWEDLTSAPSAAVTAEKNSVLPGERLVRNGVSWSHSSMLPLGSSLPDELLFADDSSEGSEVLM
# Protocol: as §28, §27
# [25] = Experiment 4 of Fig. S3 = Fig. 1b, duplicate, mean ± S.D., read-out: BMX inhibition IC50
# [26] = co-treatment with LY294002 (3 μM)
# [27] = pH 6.8, PAMPA/Pe effective permeability
smiles,measurement,setting,value
C=CC(=O)Nc1cc(-n2c(=O)ccc3cnc4cc(-c5ccc(NS(C)(=O)=O)cc5)ccc4c32)ccc1C [JS24],IC50,"[1]; Experiment 2 of Fig. S3, control commercial BMX-IN-1, read-out: BMX IC50",4.1 ± 0.3 nM
same,IC50,[1]; [25],7.5 nM
same,LE (BMX),[1]; ligand efficiency,0.29
same,LipE (BMX),[1]; lipophilic efficiency,4.17
same,solubility,[2],1 µM
same,ΔTm at 100 µM,"[3]; 100 μM compound, versus apo-BMX",11.34 ± 0.01 °C
same,Average Tm of BMX with compound,[3]; 100 μM compound,63.57±0.01 °C
same,GI50,"[4]; 96-well plates, mean of three experiments in triplicate",1.5 µM
same,GI50,"[5]; PC-3, 96 h, 96-well plates, N.d. = no growth inhibition observed within the concentrations tested",11.4 ± 4.1 µM
same,decrease in cell viability,"[6]; co-treatment with AKT1/2 (1 μM), relative to control AKT1/2",48%
same,cell viability reduction,[6],44%
same,decrease in cell viability,[6]; [26],35%
same,GI50,[7],4.4 µM
same,GI50,[8],6.66 ± 0.09 µM
same,GI50,[9],5.12 ± 0.12 µM
same,GI50,[10],7.28 ± 0.37 µM
same,PAMPA/%R membrane retention,[11],13±1%
same,Papp,"[12]; pH 6.8, PAMPA permeability",6.8 ×10⁻⁶ cm/s
same,Papp,[12]; [27],6.8 ± 0.4 ×10⁻⁶ cm/s
same,BTK potency gain (fold) relative to BMX-IN-1,[13],33 fold
same,IC50,[13],11.1 ± 0.8 nM
same,LE (BTK),[13]; ligand efficiency,0.29
same,LipE (BTK),[13]; lipophilic efficiency,4.00
C=CC(=O)Nc1cc(C)cc(-n2c(=O)ccc3cnc4cc(-c5ccc(NS(C)(=O)=O)cc5)ccc4c32)c1 [JS25],IC50,[1]; [25],3.5 nM
same,solubility,[2],0.1 µM
same,Average Tm of BMX with compound,[3]; 100 μM compound,61.43±0.48 °C
same,ΔTm at 100 µM,[3],9.3 ± 0.48 °C
same,GI50,[4],6.6 µM
same,GI50,"[5]; PC-3, 96 h",12.1 ± 0.7 µM
same,cell viability reduction,[6],63%
same,decrease in cell viability,[6]; [26],59%
same,PAMPA/%R membrane retention,[11],10±18%
same,Papp,"[12]; pH 6.8, PAMPA permeability",3.8 ×10⁻⁶ cm/s
same,Papp,[12]; [27],3.8 ± 1.6 ×10⁻⁶ cm/s
same,remaining binding at 1 µM,[14],1.3%
same,remaining binding at 1 µM,[15],0.4%
same,remaining binding at 1 µM,[16],89%
same,remaining binding at 1 µM,[17],91%
same,remaining binding at 1 µM,[18],16%
same,remaining binding at 1 µM,[19],93%
same,remaining binding at 1 µM,[20],80%
same,remaining binding at 1 µM,[21],95%
same,remaining binding at 1 µM,[22],52%
same,remaining binding at 1 µM,[23],100%
same,remaining binding at 1 µM,[24],89%
same,IC50,[13],5.8 ± 0.04 nM

# Source: PMC8341910, “Structural and biophysical insights into the mode of covalent binding of rationally designed potent BMX inhibitors” (RSC Chemical Biology, 2020)
